# Measurements published in US20260061082A1, “PROSTATE-SPECIFIC MEMBRANE ANTIGEN TARGETED DEEP-TUMOR PENETRATION OF POLYMER NANODRUGS AND METHODS OF USE THEREOF” (priority 2022, published 2026).
# Values joined by “and” are separate entries in the source; they are usually repeats but may differ in a detail not shown here. Identical values can stand only once. Like-named read-outs stand apart in the source and are kept apart here.
# Key:
# [1] = system: PSMA+ PC3-Pip subcutaneous tumors; conditions: prior literature; cited from earlier work
# [2] = system: PSMA+ PC3-Pip subcutaneous tumors; experiment: Treatment study in PSMA+ PC3-Pip subcutaneous models; format: in vivo, mice; conditions: 250 μCi single dose
# Method: The tumor measurements were carried out twice a week, and tumor volumes were calculated by formula V=[length×(width)^2]/2.
# [3] = system: prostate specific antigen; conditions: patients receiving as low as 14 Gy tumor-absorbed dose; cited from earlier work
# [4] = biological target: T1, PSMA (PSMA+ PC3-Pip cells) (Homo sapiens, UniProt Q04609); experiment: 68Ga-PSMA-11 competition radioligand binding assay
# T1 construct: host or cells: PC3-Pip (PSMA+ subline of PC-3)
# T1 sequence (Q04609 whole entry): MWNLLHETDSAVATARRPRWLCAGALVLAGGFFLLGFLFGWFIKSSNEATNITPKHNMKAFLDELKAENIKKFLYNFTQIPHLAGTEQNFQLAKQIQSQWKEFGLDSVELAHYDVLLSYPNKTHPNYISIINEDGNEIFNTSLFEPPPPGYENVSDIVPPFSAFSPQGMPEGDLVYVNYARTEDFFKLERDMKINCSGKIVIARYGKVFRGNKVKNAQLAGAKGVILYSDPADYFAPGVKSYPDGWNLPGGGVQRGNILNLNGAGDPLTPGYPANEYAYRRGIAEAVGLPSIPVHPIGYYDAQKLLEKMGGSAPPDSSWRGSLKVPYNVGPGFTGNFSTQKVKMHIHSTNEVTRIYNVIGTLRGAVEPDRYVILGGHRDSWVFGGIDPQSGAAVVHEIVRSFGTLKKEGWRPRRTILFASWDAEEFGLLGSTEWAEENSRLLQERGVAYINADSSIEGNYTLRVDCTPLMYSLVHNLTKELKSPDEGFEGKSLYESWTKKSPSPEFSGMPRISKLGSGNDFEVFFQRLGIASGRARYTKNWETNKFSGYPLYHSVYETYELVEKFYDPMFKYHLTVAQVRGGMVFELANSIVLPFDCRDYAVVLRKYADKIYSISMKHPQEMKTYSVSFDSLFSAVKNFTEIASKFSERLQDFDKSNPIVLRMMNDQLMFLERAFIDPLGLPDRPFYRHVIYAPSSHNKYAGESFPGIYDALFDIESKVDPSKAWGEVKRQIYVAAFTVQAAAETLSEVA
# Method: Competition Radioligand Binding Assay: The nanoparticles were utilized in a ^68Ga-PSMA-11 competition radioligand binding assay to obtain the IC50 values, similar to our prior method. […] PC3-Pip cells were seeded in 96-well plates (˜20 k cells/wells) ˜24 h prior testing in RPMI1640 medium containing with 10% FBS and 1% penicillin/streptomycin. The growth medium was discarded, and the cells were washed with PBS two times. […] The treated cells were incubated for 1 h at room temperature. Then, the radioactive medium was discarded, and the cells were washed twice with PBS. The cells in each well were then treated with NaOH (5N, 250 μL) and incubated for 30 min at 37° C. for lysis. The lysate from each well was collected in vials and analyzed in a Hidex gamma counter to quantify the bound activity. IC50 was calculated by nonlinear regression analysis in Graph-Pad Prism software.
# Competition Radioligand Binding Assay: Similar to our prior reported protocol, ^68Ga-PSMA-11 was produced in a ^68Ge/^68Ga generator, and used in a competition radioligand binding assay to acquire the IC50 values for the nanocarriers. […] After 1 h incubated at room temperature, the radioactive medium was removed, and the cells were washed with PBS twice. The cells were lyzed with sodium hydroxide and the radioactivity of the lysate in each well was counted in a Hidex gamma counter. IC50 was determined by nonlinear regression analysis in Prism software (Graph-Pad).
# PSMA = PSMA (Homo sapiens, UniProt Q04609); conditions: previously reported; cited from earlier work
# Sequence of PSMA (Q04609 whole entry, species assumed): as the sequence (Q04609 whole entry) above
# [5] = system: PC3-Pip metastatic tumors; experiment: Ex vivo organ biodistribution of [68Ga]PSMA-11 in PC3-Pip metastatic models after treatment; conditions: Control mice (no 177Lu nanocarrier), individual mice
structure (smiles),measurement,setting,value
O=C([O-])CN1CCN(CC(=O)[O-])CCN(CC(=O)NCC2CCC(C(=O)N[C@@H](Cc3ccc4ccccc4c3)C(=O)NCCCC[C@H](NC(=O)N[C@@H](CCC(=O)O)C(=O)O)C(=O)O)CC2)CCN(CC(=O)[O-])CC1.[177Lu+3] (stereo partly shown) [[^177Lu]PSMA-617],median survival,[1],51 days
same,median survival,[2],46 days
same,reduction of prostate specific antigen,[3],more than 50%
O=C(O)CC[C@H](NC(=O)N[C@@H](CCCCNC(=O)Nc1ccc(I)cc1)C(=O)O)C(=O)O [PSMA-2],IC50,"[4]; Table 10 Experiment 1, unlabeled",0.0255 µM
same,Ki,PSMA,0.00024 µM
[N-]=[N+]=NCCCCCCOC(=O)NCCCC[C@H](NC(=O)N[C@@H](CCC(=O)O)C(=O)O)C(=O)O [Azido-ACUPA],IC50,"[4]; Table 2 Experiment 1, unlabeled",0.35 µM
same,IC50,"[4]; Table 10 Experiment 2, unlabeled",0.328 µM
O=C([O-])CN(CCN(CC(=O)[O-])Cc1cc(CCC(=O)NCCCCCC(=O)NCCCC[C@H](NC(=O)N[C@@H](CCC(=O)O)C(=O)O)C(=O)O)ccc1[O-])Cc1cc(CCC(=O)O)ccc1[O-].[68Ga+3].[OH3+] [[^68Ga]PSMA-11],"[^68Ga]PSMA-11 ex vivo organ biodistribution, Blood",[5]; day 35,0.114 % ID/g and 0.2999 % ID/g and 0.08 % ID/g and 0.1 % ID/g and 0.06 % ID/Organ and 0.2029 % ID/Organ and 0.05813 % ID/Organ and 0.05324 % ID/Organ
same,"[^68Ga]PSMA-11 ex vivo organ biodistribution, Bone",[5]; day 35,0.335 % ID/g and 0.215 % ID/g and 0.2269 % ID/g and 0.3033 % ID/g and 0.08 % ID/Organ and 0.05419 % ID/Organ and 0.04439 % ID/Organ and 0.06845 % ID/Organ
same,"[^68Ga]PSMA-11 ex vivo organ biodistribution, Brain",[5]; day 35,0.046 % ID/g and 0.01371 % ID/g and 0.02404 % ID/g and 0.03404 % ID/g and 0.02 % ID/Organ and 0.004254 % ID/Organ and 0.009255 % ID/Organ and 0.01265 % ID/Organ
same,"[^68Ga]PSMA-11 ex vivo organ biodistribution, Heart",[5]; day 35,1.938 % ID/g and 1.093 % ID/g and 0.8842 % ID/g and 0.9371 % ID/g and 0.29 % ID/Organ and 0.1577 % ID/Organ and 0.1548 % ID/Organ and 0.1476 % ID/Organ
same,"[^68Ga]PSMA-11 ex vivo organ biodistribution, Large Int",[5]; day 35,0.663 % ID/g and 0.3338 % ID/g and 0.1292 % ID/g and 0.592 % ID/g and 0.09 % ID/Organ and 0.08014 % ID/Organ and 0.03072 % ID/Organ and 0.1919 % ID/Organ
same,"[^68Ga]PSMA-11 ex vivo organ biodistribution, Liver",[5]; day 35,0.855 % ID/g and 0.4054 % ID/g and 0.232 % ID/g and 0.289 % ID/g and 0.62 % ID/Organ and 0.2982 % ID/Organ and 0.1099 % ID/Organ and 0.2246 % ID/Organ
same,"[^68Ga]PSMA-11 ex vivo organ biodistribution, Lung",[5]; day 35,8.218 % ID/g and 1.814 % ID/g and 1.285 % ID/g and 1.336 % ID/g and 3.12 % ID/Organ and 0.2767 % ID/Organ and 0.1869 % ID/Organ and 0.2393 % ID/Organ
same,"[^68Ga]PSMA-11 ex vivo organ biodistribution, Muscle",[5]; day 35,0.414 % ID/g and 0.2044 % ID/g and 0.2192 % ID/g and 0.1624 % ID/g and 0.2 % ID/Organ and 0.05644 % ID/Organ and 0.04564 % ID/Organ and 0.04172 % ID/Organ
same,"[^68Ga]PSMA-11 ex vivo organ biodistribution, Pancreas",[5]; day 35,0.464 % ID/g and 0.2066 % ID/g and 0.2297 % ID/g and 0.5007 % ID/g and 0.04 % ID/Organ and 0.02448 % ID/Organ and 0.03206 % ID/Organ and 0.07795 % ID/Organ
same,"[^68Ga]PSMA-11 ex vivo organ biodistribution, Skin",[5]; day 35,3.25 % ID/g and 0.586 % ID/g and 0.9817 % ID/g and 0.4433 % ID/g and 1.08 % ID/Organ and 0.2667 % ID/Organ and 0.196 % ID/Organ and 0.2187 % ID/Organ
same,"[^68Ga]PSMA-11 ex vivo organ biodistribution, Small Int",[5]; day 35,0.29 % ID/g and 0.1397 % ID/g and 0.1663 % ID/g and 0.1479 % ID/g and 0.03 % ID/Organ and 0.02347 % ID/Organ and 0.03142 % ID/Organ and 0.02756 % ID/Organ
same,"[^68Ga]PSMA-11 ex vivo organ biodistribution, Splcon",[5]; day 35,22.586 % ID/g and 8.851 % ID/g and 8.108 % ID/g and 16.38 % ID/g
same,"[^68Ga]PSMA-11 ex vivo organ biodistribution, Spleen",[5]; day 35,1.34 % ID/Organ and 1.068 % ID/Organ and 0.7168 % ID/Organ and 1.253 % ID/Organ
same,"[^68Ga]PSMA-11 ex vivo organ biodistribution, Stomach",[5]; day 35,0.171 % ID/g and 0.3271 % ID/g and 0.1157 % ID/g and 0.09441 % ID/g and 0.16 % ID/Organ and 0.1002 % ID/Organ and 0.07062 % ID/Organ and 0.08055 % ID/Organ
same,"[^68Ga]PSMA-11 ex vivo organ biodistribution, Blood",[5]; day 50,0.212 % ID/g and 0.29 % ID/g and 0.207 % ID/g and 0.07 % ID/g and 0.13 % ID/Organ and 0.26 % ID/Organ and 0.14 % ID/Organ
same,"[^68Ga]PSMA-11 ex vivo organ biodistribution, Bone",[5]; day 50,0.398 % ID/g and 1.082 % ID/g and 0.335 % ID/g and 0.768 % ID/g and 0.06 % ID/Organ and 0.07 % ID/Organ and 0.05 % ID/Organ
same,"[^68Ga]PSMA-11 ex vivo organ biodistribution, Brain",[5]; day 50,0.037 % ID/g and 0.073 % ID/g and 0.024 % ID/g and 0.025 % ID/g and 0.01 % ID/Organ and 0.02 % ID/Organ
same,"[^68Ga]PSMA-11 ex vivo organ biodistribution, Heart",[5]; day 50,1.037 % ID/g and 1.182 % ID/g and 0.615 % ID/g and 0.906 % ID/g and 0.16 % ID/Organ and 0.09 % ID/Organ and 0.14 % ID/Organ and 0.18 % ID/Organ
same,"[^68Ga]PSMA-11 ex vivo organ biodistribution, Large Int",[5]; day 50,0.766 % ID/g and 0.402 % ID/g and 1.093 % ID/g and 1.205 % ID/g and 0.12 % ID/Organ and 0.06 % ID/Organ and 0.24 % ID/Organ and 0.25 % ID/Organ
same,"[^68Ga]PSMA-11 ex vivo organ biodistribution, Liver",[5]; day 50,2.351 % ID/g and 1.41 % ID/g and 0.215 % ID/g and 0.336 % ID/g and 3.36 % ID/Organ and 0.35 % ID/Organ and 0.3 % ID/Organ and 0.41 % ID/Organ
same,"[^68Ga]PSMA-11 ex vivo organ biodistribution, Lungs",[5]; day 50,4.185 % ID/g and 14.472 % ID/g and 1.403 % ID/g and 2.187 % ID/g and 0.55 % ID/Organ and 1.74 % ID/Organ and 0.19 % ID/Organ and 0.34 % ID/Organ
same,"[^68Ga]PSMA-11 ex vivo organ biodistribution, Muscle",[5]; day 50,0.335 % ID/g and 0.498 % ID/g and 0.405 % ID/g and 0.533 % ID/g and 0.04 % ID/Organ and 0.06 % ID/Organ and 0.11 % ID/Organ and 0.09 % ID/Organ
same,"[^68Ga]PSMA-11 ex vivo organ biodistribution, Pancreas",[5]; day 50,0.568 % ID/g and 0.668 % ID/g and 0.447 % ID/g and 0.649 % ID/g and 0.05 % ID/Organ and 0.07 % ID/Organ and 0.06 % ID/Organ
same,"[^68Ga]PSMA-11 ex vivo organ biodistribution, Skin",[5]; day 50,1.068 % ID/g and 2.397 % ID/g and 0.883 % ID/g and 0.807 % ID/g and 0.62 % ID/Organ and 0.6 % ID/Organ and 0.31 % ID/Organ and 0.33 % ID/Organ
same,"[^68Ga]PSMA-11 ex vivo organ biodistribution, Small Int",[5]; day 50,0.365 % ID/g and 0.631 % ID/g and 0.23 % ID/g and 0.289 % ID/g and 0.05 % ID/Organ and 0.09 % ID/Organ and 0.06 % ID/Organ and 0.07 % ID/Organ
same,"[^68Ga]PSMA-11 ex vivo organ biodistribution, Spleen",[5]; day 50,10.073 % ID/g and 86.889 % ID/g and 5.37 % ID/g and 8.812 % ID/g and 0.58 % ID/Organ and 1.25 % ID/Organ and 0.94 % ID/Organ and 1.1 % ID/Organ
same,"[^68Ga]PSMA-11 ex vivo organ biodistribution, Stomach",[5]; day 50,0.605 % ID/g and 0.424 % ID/g and 0.154 % ID/g and 0.107 % ID/g and 0.34 % ID/Organ and 0.17 % ID/Organ and 0.12 % ID/Organ and 0.11 % ID/Organ
